Reference: article PMC11673057, “Unlocking Testosterone Production by Biotransformation: Engineering a Fungal Model of Aspergillus nidulans Strain Deficient in Steroid 11α-Hydroxylase Activity and Expressing 17β-Hydroxysteroid Dehydrogenase Enzyme as Proof of Concept” (Biomolecules, 2024)

Biological target: CYP68L1 (hydAN), steroid 11α-hydroxylase (Aspergillus nidulans, UniProt A0A6J3WXY1)
Assay: whole-cell fermentation of knockout strain expressing enzyme, HPLC
Format: cell-based
Conditions: 32 °C, 72 h; 11alpha-hydroxylation

CYP68L1 (hydAN), steroid 11α-hydroxylase, sequence (A0A6J3WXY1 entry or part of it): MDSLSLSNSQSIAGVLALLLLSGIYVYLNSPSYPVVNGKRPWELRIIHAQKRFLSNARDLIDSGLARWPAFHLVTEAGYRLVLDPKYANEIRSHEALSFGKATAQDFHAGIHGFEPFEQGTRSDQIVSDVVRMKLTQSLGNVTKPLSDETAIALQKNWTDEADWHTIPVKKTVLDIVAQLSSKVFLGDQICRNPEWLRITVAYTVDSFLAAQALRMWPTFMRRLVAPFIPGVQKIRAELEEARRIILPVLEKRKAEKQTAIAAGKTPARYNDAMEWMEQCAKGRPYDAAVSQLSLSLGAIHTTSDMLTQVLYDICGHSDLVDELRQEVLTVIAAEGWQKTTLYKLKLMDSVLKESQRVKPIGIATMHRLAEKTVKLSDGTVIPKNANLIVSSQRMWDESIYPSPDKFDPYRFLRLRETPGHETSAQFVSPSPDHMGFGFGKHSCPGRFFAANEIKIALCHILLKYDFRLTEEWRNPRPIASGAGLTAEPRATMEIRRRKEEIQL

C[C@]12CCC(=O)C=C1CC[C@@H]1[C@@H]2CC[C@]2(C)C(=O)CC[C@@H]12 [AD, androstenedione]
whole-cell fermentation of knockout strain expressing enzyme, HPLC: Hydroxylase activity was restored by expressing the hydAN gene encoding this CYP450 in the KOhydAN strain
